This is an account of results in patent US20250161180A1, “NOVEL USE OF 4-AMIDINO BENZYLAMINES” (DSM IP Assets B.V., priority 2022, published 2025).

The subject of the assay is collagen type 1. In words: in vitro dermal fibroblast collagen assay (collagen 1 immunolabeling, flow cytometry). Type of assay: cell-based, human. The settings on record: for Collagen 1 expression relative to untreated (%): normal human dermal fibroblasts, 72 hours, mean (n = 4), untreated = 100%. As to the method:
Amidinobenzyl Benzylsulfonyl D-Seryl Homophenylalaninamide Acetate (ABSHA) was evaluated for its effect on collagen type 1. This was done using an in vitro dermal fibroblast collagen assay.
Normal human dermal fibroblasts were seeded in cell culture medium (Dulbecco's Modified Eagle Medium supplemented with 10% serum and 1% antibiotics) and allowed to adhere in a humidified cell incubator maintaining 37° C. and 5% CO2. Afterwards, the cells were starved with culture medium without serum for 16-24 hours to synchronize the cells their cell cycle. The starvation medium was removed and cell culture medium+SYN®-UP at various concentrations was added to the cells. The cells were treated for 72 hours. The cells were then fixated and immunolabeled with antibodies specific for collagen 1. These labeled cells were analyzed using flow cytometry and compared to the untreated ones (medium without SYN®-UP).
Table 1. […] Data are normalized to the untreated control (100%) and expressed as the mean±SD (n=4).
For orientation: A flow cytometer gives signals particle by particle.

Molecules are shown by their SMILES.

For `N=C(N)c1ccc(CNC(=O)C(CCc2ccccc2)NC(=O)C(CO)NS(=O)(=O)Cc2ccccc2)cc1` [ABSHA, Amidinobenzyl Benzylsulfonyl D-Seryl Homophenylalaninamide Acetate], the “effect on collagen type 1 expression (in words)” value (in vitro dermal fibroblast collagen assay) is listed as “increases collagen expression”. Also, the “Collagen 1 expression relative to untreated (%)” value is, setting by setting: (1 μM) 144%; (5 μM) 160%; (25 μM) 185%; (concentration printed only as "μM" (figure missing)) 188%.
